Read-outs that look alike come from different tables or passages of the source. Bridge positions count the residues as written; N and C are the ends. Square brackets hold non-standard residues; d marks the D form. Peptide text beside a SMILES is read from it. * marks the point of attachment. Fmoc = O=C(OCC1c2ccccc2-c2ccccc21)*; Aun = NCCCCCCCCCCC(=O)O
What was measured:
PCSK9Δhelix = biological target: T1, PCSK9Δhelix (Homo sapiens, UniProt Q8NBP7); assay: PCSK9Δhelix/Ab20 TR-FRET binding assay
T1 construct: Human PCSK9 construct M1-Q692 with an engineered TEV site (residue deletion Y166, R167); made in house; host or cells: CHO

His-EGF(A)-Fc = His-EGF(A)-Fc TR-FRET counterscreen
Experimental: The former was based on a TF-FRET assay to measure the association of the EGF(A) domain of the LDLR to PCSK9 (“PCSK9/EGF(A) binding assay”) whilst the latter was based on a TR-FRET assay to measure binding of Ab20 to PCSK9Δhelix (“PCSK9Δhelix/Ab20 binding assay”).
The ability of compounds to inhibit binding to PCSK9 was evaluated with a panel of time-resolved fluorescence resonance energy transfer (TR-FRET) binding assays. […] The PCSK9Δhelix/Ab20 binding assay evaluated the ability of compounds to compete with Ab20 for binding to the N-terminal groove region in a His-tagged, PCSK9Δhelix construct. […] Signal generation in the PCSK9 binding assays was dependent upon the binding interaction to bring into close proximity the His-tag on the PCSK9 and the Fc-tag on the ligand. Anti-His-APC was bound to the His-tag, and anti-Fc-europium was bound to the Fc-tag. When these two antibodies were in close proximity and were irradiated with light at 340 nm, the europium was excited and emitted energy at 615 nm. This energy was taken up by the APC and was emitted as light at 665 nm. Compounds that competed with the ligand reduced the energy transfer and thus the emission at 665 nm. In the His-EGFA-Fc molecule in the counterscreen, the two tags were always in close proximity, thus any reduction in emission at 665 nm was due to interference with the detection system.
Compounds were solubilized and dilutions were prepared in DMSO. […] The plate was centrifuged to mix the well contents and allowed to incubate for 30 min. […] The TR-FRET signal was read on a ViewLux reader (PerkinElmer) with excitation at 340 nm and emission at 615 and 665 nm with a 50-μs time delay between excitation and measurement of emission. The TR-FRET ratio was calculated as the fluorescence emission at 665 nm divided by the fluorescence emission at 615 nm. The normalized TR-FRET ratios were plotted as a function of the compound concentrations, and the IC50 values were determined using a 4-parameter logistic regression.
In black 1536-well assay plates (MaKO, Aurora® Microplates, Whitefish, Mont.), 40 nL of peptide in DMSO were preincubated with 2 μL His-tagged PCSK9 plus anti-His-allophycocyanin in assay buffer (50 mM Tris-HCl, pH 7.5, 150 mM NaCl, 2 mM CaCl2, 0.01% Tween®-20, 0.1% bovine gamma globulins, and protease inhibitor cocktail) for 30 min. Then 2 μL of Fc-tagged ligand and anti-Fc-europium in assay buffer were added and allowed to incubate for 2 h.

[1] = TR-FRET, Example 7, read-out: PCSK9Δhelix/Ab20 IC50
[2] = TR-FRET counterscreen, Table 8D, * = some inhibition at highest concentrations, not sufficient to fit an IC50

T1 sequence (Q8NBP7 with tags, fused parts or gaps limits assumed): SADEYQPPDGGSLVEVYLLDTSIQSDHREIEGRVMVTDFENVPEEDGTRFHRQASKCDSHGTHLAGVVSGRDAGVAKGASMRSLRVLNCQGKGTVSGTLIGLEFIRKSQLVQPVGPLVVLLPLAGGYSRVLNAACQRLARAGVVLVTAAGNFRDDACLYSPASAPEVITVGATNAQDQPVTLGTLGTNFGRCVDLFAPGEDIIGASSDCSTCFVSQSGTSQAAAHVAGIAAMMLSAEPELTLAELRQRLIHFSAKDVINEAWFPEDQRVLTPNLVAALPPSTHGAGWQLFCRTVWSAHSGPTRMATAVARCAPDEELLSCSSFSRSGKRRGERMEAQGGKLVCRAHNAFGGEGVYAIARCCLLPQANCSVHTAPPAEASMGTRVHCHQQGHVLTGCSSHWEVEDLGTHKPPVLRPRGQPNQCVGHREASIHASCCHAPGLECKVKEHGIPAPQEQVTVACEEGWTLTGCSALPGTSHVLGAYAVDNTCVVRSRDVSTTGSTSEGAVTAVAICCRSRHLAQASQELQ
T1 sequence (Q8NBP7 31-152 partner limits assumed): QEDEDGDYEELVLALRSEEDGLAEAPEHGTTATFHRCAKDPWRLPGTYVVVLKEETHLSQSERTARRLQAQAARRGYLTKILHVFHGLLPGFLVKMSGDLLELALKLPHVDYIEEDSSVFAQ

Molecule | IC50 (PCSK9Δhelix; [1]) [µM] | IC50 (His-EGF(A)-Fc; counterscreen, Example 7) [µM] | other results
CC(=O)N[C@H](C(=O)N[C@H](C(=O)N[C@@H](Cc1ccccc1)C(=O)N[C@H](C(=O)N[C@@H](CO)C(=O)N[C@@H](Cc1c[nH]c2ccccc12)C(=O)N[C@@H](CCC(=O)O)C(=O)N[C@@H](CCC(=O)O)C(=O)N[C@@H](Cc1ccc(O)cc1)C(=O)N[C@@H](CC(C)C)C(=O)N[C@@H](CC(=O)O)C(=O)N[C@@H](Cc1c[nH]c2ccccc12)C(=O)N[C@H](C(=O)NCCCCCC(=O)N[C@@H](CCCCN)C(=O)N[C@@H](CC(C)C)C(=O)N[C@@H](Cc1c[nH]c2ccccc12)C(=O)N[C@@H](CC(N)=O)C(=O)N[C@@H](CC(C)C)C(=O)NCC(=O)N[C@@H](CCCNC(=N)N)C(=O)N[C@H](C(N)=O)C(C)C)C(C)C)[C@@H](C)O)C(C)C)[C@@H](C)O [Compound 18] | 0.04 | > 50 | –
CC[C@H](C)[C@@H]1NC(=O)[C@H](CCCNC(=N)N)NC(=O)[C@H](CCC(N)=O)NC(=O)[C@H](CC(C)C)NC(=O)[C@H](CC(N)=O)NC(=O)[C@H](Cc2c[nH]c3ccccc23)NC(=O)[C@@H]2CCCN2C(=O)[C@H](CC(C)C)NC(=O)[C@H](CCCNC(=N)N)NC(=O)[C@@H](NC(=O)CNC(=O)CNC(=O)[C@H](CO)NC(=O)CNC(=O)[C@@H](NC(=O)[C@H](Cc2c[nH]c3ccccc23)NC(=O)[C@H](CC(=O)O)NC(=O)[C@H](CC(C)C)NC(=O)[C@H](Cc2ccc(O)cc2)NC(=O)[C@H](CCC(=O)O)NC(=O)[C@H](CCC(=O)O)NC(=O)[C@H](Cc2c[nH]c3ccccc23)NC(=O)[C@H](CO)NC(=O)[C@@H](NC(=O)[C@H](Cc2ccccc2)NC(=O)[C@@H](NC(=O)[C@@H](NC(C)=O)[C@@H](C)O)C(C)C)[C@@H](C)O)C(C)C)CSSC[C@@H](C(N)=O)NC(=O)[C@@H]2CCCN2C(=O)[C@H](CC(C)C)NC(=O)CNC1=O [Compound 25] (Ac-TVFTSWEEYLDWVGSGGCRLPWNLQRIGLPC-NH2; disulfide 18-31) | 0.083 | > 50 | inhibition in the PCSK9Δhelix/Ab20 binding assay (PCSK9Δhelix): potent inhibitors
CC[C@H](C)[C@@H]1NC(=O)[C@H](CCCNC(=N)N)NC(=O)[C@H](CCC(N)=O)NC(=O)[C@H](CC(C)C)NC(=O)[C@H](CC(N)=O)NC(=O)[C@H](Cc2c[nH]c3ccccc23)NC(=O)[C@@H]2CCCN2C(=O)[C@H](CC(C)C)NC(=O)[C@H](Cc2ccccc2)NC(=O)[C@@H](NC(=O)CNC(=O)CNC(=O)[C@H](CO)NC(=O)CNC(=O)[C@@H](NC(=O)[C@H](Cc2c[nH]c3ccccc23)NC(=O)[C@H](CC(=O)O)NC(=O)[C@H](CC(C)C)NC(=O)[C@H](Cc2ccc(O)cc2)NC(=O)[C@H](CCC(=O)O)NC(=O)[C@H](CCC(=O)O)NC(=O)[C@H](Cc2c[nH]c3ccccc23)NC(=O)[C@H](CO)NC(=O)[C@@H](NC(=O)[C@H](Cc2ccccc2)NC(=O)[C@@H](NC(=O)[C@@H](NC(C)=O)[C@@H](C)O)C(C)C)[C@@H](C)O)C(C)C)CSSC[C@@H](C(N)=O)NC(=O)[C@H](CC(C)C)NC(=O)[C@H](CC(C)C)NC(=O)CNC1=O [Compound 38] (Ac-TVFTSWEEYLDWVGSGGCFLPWNLQRIGLLC-NH2; disulfide 18-31) | 0.003 | > 50 | inhibition in the PCSK9Δhelix/Ab20 binding assay (PCSK9Δhelix): potent inhibitors
CC[C@H](C)[C@@H]1NC(=O)[C@H](CCCNC(=N)N)NC(=O)[C@H](CCCCN)NC(=O)[C@H](CC(C)C)NC(=O)[C@H](CC(N)=O)NC(=O)[C@H](Cc2c[nH]c3ccccc23)NC(=O)[C@@H](NC(=O)CNC(=O)[C@H](CO)NC(=O)CNC(C)=O)CSSC[C@@H](C(=O)N[C@@H](Cc2c[nH]c3ccccc23)C(N)=O)NC(=O)CNC(=O)[C@H](CCC(N)=O)NC(=O)[C@H](CO)NC(=O)CNC1=O [Compound 40] (Ac-GSGCWNLKRIGSQGCW-NH2; disulfide 4-15) | – | – | IC50 (PCSK9Δhelix; PCSK9Δhelix/Ab20 IC50, TR-FRET, Table 8D, disulfide-cyclized extension peptides): 2.41 µM; IC50 (His-EGF(A)-Fc; [2]): > 50 µM
CC[C@H](C)[C@@H]1NC(=O)[C@H](CCCNC(=N)N)NC(=O)[C@H](CCCCN)NC(=O)[C@H](CC(C)C)NC(=O)[C@H](CC(N)=O)NC(=O)[C@H](Cc2c[nH]c3ccccc23)NC(=O)[C@H](CC(C)C)NC(=O)[C@@H](NC(=O)[C@H](CCSC)NC(C)=O)CSSC[C@@H](C(=O)N[C@@H](CCC(=O)O)C(=O)N[C@@H](Cc2ccc(O)cc2)C(N)=O)NC(=O)[C@H](CCC(N)=O)NC(=O)[C@H](CO)NC(=O)CNC1=O [Compound 63] (Ac-MCLWNLKRIGSQCEY-NH2; disulfide 2-13) | – | – | inhibition in the PCSK9Δhelix/Ab20 binding assay (PCSK9Δhelix): low micromolar range; IC50 (PCSK9Δhelix; TR-FRET, Table 8D, disulfide-cyclized extension peptides, read-out: PCSK9Δhelix/Ab20 IC50): 6 µM; IC50 (His-EGF(A)-Fc; [2]): 41 µM
CC(=O)N[C@H]1CSSC[C@@H](C(N)=O)NC(=O)CCCCCCCCCCNC(=O)[C@H](CCCNC(=N)N)NC(=O)[C@H](CCC(N)=O)NC(=O)[C@H](CC(C)C)NC(=O)[C@H](CC(N)=O)NC(=O)[C@H](Cc2c[nH]c3ccccc23)NC(=O)[C@@H]2CCCN2C(=O)[C@H](CC(C)C)NC(=O)[C@H](CCCNC(=N)N)NC1=O [Compound 83] (Ac-CRLPWNLQR[Aun]C-NH2; disulfide 1-11 (inferred)) | – | – | inhibition in the PCSK9Δhelix/Ab20 binding assay (PCSK9Δhelix): removes inhibition; IC50 (His-EGF(A)-Fc; [2]): > 50 µM
CC[C@H](C)[C@H](NC(=O)[C@H](CCCNC(=N)N)NC(=O)[C@H](CCCCN)NC(=O)[C@H](CC(C)C)NC(=O)[C@H](CC(N)=O)NC(=O)[C@H](Cc1c[nH]c2ccccc12)NC(=O)[C@H](C)NC(=O)CCCCCNC(=O)[C@@H](NC(=O)[C@H](Cc1c[nH]c2ccccc12)NC(=O)[C@H](CC(=O)O)NC(=O)[C@H](CC(C)C)NC(=O)[C@H](Cc1ccc(O)cc1)NC(=O)[C@H](CCC(=O)O)NC(=O)[C@H](CCC(=O)O)NC(=O)[C@H](Cc1c[nH]c2ccccc12)NC(=O)[C@H](CO)NC(=O)[C@@H](NC(=O)[C@H](Cc1ccccc1)NC(=O)[C@@H](NC(=O)[C@@H](NC(C)=O)[C@@H](C)O)C(C)C)[C@@H](C)O)C(C)C)C(=O)NCC(=O)N[C@@H](CO)C(N)=O [Compound 91] | 0.01 | > 50 | –
CC[C@H](C)[C@H](NC(=O)[C@H](CCCNC(=N)N)NC(=O)[C@H](CCCCN)NC(=O)[C@H](CC(C)C)NC(=O)[C@H](CC(N)=O)NC(=O)[C@H](Cc1c[nH]c2ccccc12)NC(=O)[C@H](C)NC(=O)CCCCCNC(=O)[C@@H](NC(=O)[C@H](Cc1c[nH]c2ccccc12)NC(=O)[C@H](CC(=O)O)NC(=O)[C@H](CC(C)C)NC(=O)[C@H](Cc1ccc(O)cc1)NC(=O)[C@H](CCC(=O)O)NC(=O)[C@H](CCC(=O)O)NC(=O)[C@H](Cc1c[nH]c2ccccc12)NC(=O)[C@H](CO)NC(=O)[C@@H](NC(=O)[C@H](Cc1ccccc1)NC(=O)[C@@H](NC(=O)[C@@H](NC(C)=O)[C@@H](C)O)C(C)C)[C@@H](C)O)C(C)C)C(=O)NCC(N)=O [Compound 92] | 0.013 | > 50 | –
CC[C@H](C)[C@H](NC(=O)[C@H](CCCNC(=N)N)NC(=O)[C@H](CCCCN)NC(=O)[C@H](CC(C)C)NC(=O)[C@H](CC(N)=O)NC(=O)[C@H](Cc1c[nH]c2ccccc12)NC(=O)[C@H](C)NC(=O)CCCCCNC(=O)[C@@H](NC(=O)[C@H](Cc1c[nH]c2ccccc12)NC(=O)[C@H](CC(=O)O)NC(=O)[C@H](CC(C)C)NC(=O)[C@H](Cc1ccc(O)cc1)NC(=O)[C@H](CCC(=O)O)NC(=O)[C@H](CCC(=O)O)NC(=O)[C@H](Cc1c[nH]c2ccccc12)NC(=O)[C@H](CO)NC(=O)[C@@H](NC(=O)[C@H](Cc1ccccc1)NC(=O)[C@@H](NC(=O)[C@@H](NC(C)=O)[C@@H](C)O)C(C)C)[C@@H](C)O)C(C)C)C(N)=O [Compound 93] | 0.016 | > 50 | –
CC(=O)N[C@H](C(=O)N[C@H](C(=O)N[C@@H](Cc1ccccc1)C(=O)N[C@H](C(=O)N[C@@H](CO)C(=O)N[C@@H](Cc1c[nH]c2ccccc12)C(=O)N[C@@H](CCC(=O)O)C(=O)N[C@@H](CCC(=O)O)C(=O)N[C@@H](Cc1ccc(O)cc1)C(=O)N[C@@H](CC(C)C)C(=O)N[C@@H](CC(=O)O)C(=O)N[C@@H](Cc1c[nH]c2ccccc12)C(=O)N[C@H](C(=O)NCCCCCC(=O)N[C@@H](C)C(=O)N[C@@H](Cc1c[nH]c2ccccc12)C(=O)N[C@@H](CC(N)=O)C(=O)N[C@@H](CC(C)C)C(=O)N[C@@H](CCCCN)C(=O)N[C@@H](CCCNC(=N)N)C(N)=O)C(C)C)[C@@H](C)O)C(C)C)[C@@H](C)O [Compound 94] | 1.41 | > 50 | –
CC[C@H](C)[C@@H]1NC(=O)[C@H](CCCNC(=N)N)NC(=O)[C@H](CCCCN)NC(=O)[C@H](CC(C)C)NC(=O)[C@H](CC(N)=O)NC(=O)[C@H](Cc2c[nH]c3ccccc23)NC(=O)[C@@H](NC(=O)CNC(=O)[C@H](CO)NC(=O)CNC(=O)OCC2c3ccccc3-c3ccccc32)CSSC[C@@H](C(N)=O)NC(=O)CNC(=O)[C@H](CCC(N)=O)NC(=O)[C@H](CO)NC(=O)CNC1=O [Compound 98] (Fmoc-GSGCWNLKRIGSQGC-NH2; disulfide 4-15) | – | – | IC50 (PCSK9Δhelix; PCSK9Δhelix/Ab20 IC50, TR-FRET, Example 7): 3.6 µM; IC50 (His-EGF(A)-Fc; [2]): > 50 µM
Ac-TVFTSWEEYLDWVGGSGKLWNLGRV-NH2 [Compound 8] | 0.049 | > 50 | –
Ac-TVFTSWEEYLDWVGSGKLWNL-NH2 [Compound 6] | 10 | > 50 | –
Ac-TVFTSWEEYLDWVGSGKLWNLG-NH2 [Compound 5] | 11.1 | > 50 | –
Ac-TVFTSWEEYLDWVGSGKLWNLGR-NH2 [Compound 4] | 1.52 | > 50 | –
